Reference: patent US11311624B2, “Inhibitors of MEK/PI3K, JAK/MEK, JAK/PI3K/mTOR and MEK/PI3K/mTOR biological pathways and methods for improving lymphatic uptake, bioavailability, and solubility of therapeutic compounds” (THE REGENTS OF THE UNIVERSITY OF MICHIGAN, priority 2017, dated 2022)
Like-named read-outs stand apart in the source and are kept apart here.

Assays:
[1] = molecular target: PI3Kα (Homo sapiens, UniProt P42336); experiment: In vitro inhibition of PI3Kα; format: biochemical
[2] = molecular target: PI3Kδ (Homo sapiens, UniProt O00329); experiment: In vitro inhibition of PI3Kδ; format: biochemical
[3] = molecular target: PI3Kβ (Homo sapiens, UniProt P42338); experiment: In vitro inhibition of PI3Kβ; format: biochemical
[4] = molecular target: PI3Kγ (Homo sapiens, UniProt P48736); experiment: In vitro inhibition of PI3Kγ; format: biochemical
[5] = molecular target: MEK1 (Homo sapiens, UniProt Q02750); experiment: In vitro inhibition of MEK1; format: biochemical
[6] = test system: pERK1/2 and pAKT; experiment: Immunoblot of treated A375 melanoma cells (FIG. 5A); format: cell-based, human; details: 1 h, 20 μM
Experimental: (§1) ADME (absorption, distribution, metabolism, and excretion) studies of ST-168 have shown that ST-168 is bioavailable following administration in mice.
In FIG. 5A, a two-dimensional assessment of ST-162 and ST-168. […] In FIG. 5B, assessment of dead cells in 3D melanoma spheroids post-treatment with ST-162 and ST-168. A375 melanoma spheroids were treated for 72 h with 20 μM each of ST-162 or ST-168 before staining with Calcein AM and ethidium homodimer-1 for fluorescent microscopy (live/dead viability assay, Molecular Probes). Green fluorescence indicates live cells, and red fluorescence indicates dead cells. Images were obtained with an Olympus IX70 fluorescent microscope using the SPOT advance program. In FIG. 5C tumor growth inhibition by ST-162 and ST-168 in a melanoma xenograft model. Tumor implantation consisted of inoculation of 5×10^6 A375 cells suspended in 100 μL of media into the flank of nude mice. Treatment was initiated once tumors reached >100 mm^3. […] Changes in tumor growth of A375 xenografts were assessed by conducting MRI imaging twice per week. Tumor volume changes between ST-162 and ST-168 treatment were determined to be statistically significant (p<0.05) using an unpaired Student's t test at the last time point. […]

[7] = test system: A375 xenografts; experiment: Tumor growth inhibition in melanoma xenograft model (FIG. 5C); format: in vivo, nude mice; details: for tumor growth: 400 mg/kg oral once daily, initial 30 days
Experimental: as §1
In FIG. 5A, a two-dimensional assessment of ST-162 and ST-168. […] In FIG. 5B, assessment of dead cells in 3D melanoma spheroids post-treatment with ST-162 and ST-168. A375 melanoma spheroids were treated for 72 h with 20 μM each of ST-162 or ST-168 before staining with Calcein AM and ethidium homodimer-1 for fluorescent microscopy (live/dead viability assay, Molecular Probes). Green fluorescence indicates live cells, and red fluorescence indicates dead cells. Images were obtained with an Olympus IX70 fluorescent microscope using the SPOT advance program. In FIG. 5C tumor growth inhibition by ST-162 and ST-168 in a melanoma xenograft model. Tumor implantation consisted of inoculation of 5×10^6 A375 cells suspended in 100 μL of media into the flank of nude mice. Treatment was initiated once tumors reached >100 mm^3. Mice were randomized into two treatment groups and treated once daily with either vehicle (200 μL of OraPlus) or 400 mg/kg each of ST-162 or ST-168 by oral gavage until sacrifice (42 days). Changes in tumor growth of A375 xenografts were assessed by conducting MRI imaging twice per week. Tumor volume changes between ST-162 and ST-168 treatment were determined to be statistically significant (p<0.05) using an unpaired Student's t test at the last time point. Experimental design: n=4-6 tumors/treatment group.

[8] = test system: TGFα-transgenic mouse model of idiopathic pulmonary fibrosis (IPF); experiment: Dox-inducible TGFα-transgenic mouse model of idiopathic pulmonary fibrosis; format: in vivo, mice; details: 400 mg/kg PO, 3 week follow up CT scan
Experimental: Treatment of inflammatory-mediated fibrotic diseases were also evaluated using a doxycycline (Dox)-inducible transforming growth factor-α (TGFα)-transgenic mouse model of idiopathic pulmonary fibrosis (IPF) expressing lung-epithelial specific TGFα following Dox administration. […] Weekly lung micro-CT exams were used for assessment of fibrotic burden. Nintenadib (n=5) (100 mg/kg) was also evaluated for comparison. Lung tissue was examined microscopy in a subset of animals at the conclusion of the study.

[9] = ADME studies of ST-168 in mice; format: in vivo
From the text: as §1

[10] = Tolerance in colorectal, glioma and melanoma mouse xenograft models; format: in vivo; details: 400 mg/kg orally, suspended in ORA-Plus, glioma, melanoma xenograft models
From the text: as §1

[11] = Plasma and lymphatic tissue levels after single oral dose of ST-168 or PD901, LC-MS/MS (FIG. 3); format: in vivo; details: mouse
Experimental: LC-MS/MS quantification of drug concentrations in mouse tissues over time following a single oral dose is shown. FIG. 3 contains block diagrams for formulations in ORA-Plus liquid particulate suspension: FIG. 3A compound ST-168 levels at 4 hours in plasma and lymphatic tissue versus the MEK inhibitor PD0325901 (henceforth referred to as PD901). FIG. 3B ST-168 time dependence in plasma and lymphatic tissue, and formulated in Maisine, FIG. 3C ST-168 time dependence in plasma and lymphatic tissue following 100 mg/kg dose.
In FIG. 3, LC-MS/MS quantification of drug concentrations in mouse tissues over time are shown following a single oral suspension dose of ST-168 delivered in ORA-Plus®. ORA-Plus is an aqueous-based vehicle (ORA-Plus Product Data Sheet available at Perrigo Company's website) containing a synergistic blend of suspending agents having a high degree of colloidal activity. The suspending agents form a structured, gel-like matrix which suspends particles and allow for little settling. ORA-Plus is buffered to a slightly acidic pH to help reduce degradation of medicinal agents through oxidation. The ORA-Plus contains purified water, microcrystalline cellulose, carboxymethylcellulose sodium, xanthan gum, carrageenan, calcium sulfate, trisodium phosphate, citric acid and sodium phosphate as buffers and dimethicone antifoam emulsion, preserved with methylparaben and potassium sorbate. […] Any compound delivered in ORA-Plus is distributed to the plasma and lymphatic system based upon the physiochemical properties of the drug. Thus, the formulation itself only serves to provide for a suspension of drug particulates and dissolution of drug will be based upon water solubility.
This is an important distinction showing that Compound ST-168 has lymphatic absorptive properties because ORA-Plus is not a long chain fatty acid like Maisine. […] Data presented in FIGS. 3A through 3D reveal that the mEG linker technology for chemical coupling with drugs produces solubility properties consistent with formulation and bioavailability required for drug-like pharmaceutical characteristics and improved lymphatic absorption.

[12] = Mesenteric lymph duct cannulation rat model, lymphatic transport (FIG. 8); format: in vivo; details: 50 mg/kg intraduodenal, pretreatment with cycloheximide
From the text: Evaluation of compound mechanism for lymphatic uptake was also undertaken.

[13] = molecular target: mTOR (Homo sapiens, UniProt P42345); experiment: In vitro inhibition of mTOR; format: biochemical; details: Table 10B, inhibitory activity, unit inferred
[14] = Table 14, read-out: IC50 (nM) PI3Kα
[15] = Table 14, read-out: IC50 (nM) PI3Kδ
[16] = Table 14, read-out: IC50 (nM) PI3Kβ
[17] = Table 14, read-out: IC50 (nM) PI3Kγ
[18] = Table 10B, inhibitory activity, unit inferred, read-out: PI3Kα
[19] = Table 10B, inhibitory activity, unit inferred, read-out: PI3Kδ
[20] = Table 10B, inhibitory activity, unit inferred, read-out: PI3Kβ
[21] = Table 10B, inhibitory activity, unit inferred, read-out: PI3Kγ

PI3Kδ, sequence (O00329 whole entry, species assumed): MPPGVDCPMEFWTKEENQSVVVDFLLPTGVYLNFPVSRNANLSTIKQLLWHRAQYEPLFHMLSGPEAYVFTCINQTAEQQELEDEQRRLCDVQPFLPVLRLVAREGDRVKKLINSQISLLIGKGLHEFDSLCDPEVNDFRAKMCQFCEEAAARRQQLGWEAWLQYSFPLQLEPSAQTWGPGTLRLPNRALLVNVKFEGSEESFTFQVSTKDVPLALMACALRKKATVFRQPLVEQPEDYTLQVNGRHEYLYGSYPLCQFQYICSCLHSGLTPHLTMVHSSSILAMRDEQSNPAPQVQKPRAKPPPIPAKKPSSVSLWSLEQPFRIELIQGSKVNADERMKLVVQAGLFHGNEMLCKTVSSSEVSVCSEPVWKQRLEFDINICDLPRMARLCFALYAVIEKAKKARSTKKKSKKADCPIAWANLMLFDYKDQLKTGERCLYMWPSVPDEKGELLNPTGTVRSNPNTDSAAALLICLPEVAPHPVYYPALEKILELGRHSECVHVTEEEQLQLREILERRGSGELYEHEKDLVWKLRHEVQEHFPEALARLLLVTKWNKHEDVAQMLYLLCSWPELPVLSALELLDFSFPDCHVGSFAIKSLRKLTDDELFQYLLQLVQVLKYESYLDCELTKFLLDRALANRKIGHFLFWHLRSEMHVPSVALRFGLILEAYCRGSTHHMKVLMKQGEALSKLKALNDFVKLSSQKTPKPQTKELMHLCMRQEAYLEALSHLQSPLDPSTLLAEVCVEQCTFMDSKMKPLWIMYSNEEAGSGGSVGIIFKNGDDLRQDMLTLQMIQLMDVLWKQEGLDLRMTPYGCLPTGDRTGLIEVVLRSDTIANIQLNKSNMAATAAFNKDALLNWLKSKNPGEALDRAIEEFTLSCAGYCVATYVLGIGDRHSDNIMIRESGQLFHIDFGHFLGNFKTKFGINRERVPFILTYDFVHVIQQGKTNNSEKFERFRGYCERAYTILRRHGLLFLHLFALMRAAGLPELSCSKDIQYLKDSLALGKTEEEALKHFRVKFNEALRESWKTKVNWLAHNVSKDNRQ
PI3Kδ, sequence (P27986 whole entry partner, species assumed): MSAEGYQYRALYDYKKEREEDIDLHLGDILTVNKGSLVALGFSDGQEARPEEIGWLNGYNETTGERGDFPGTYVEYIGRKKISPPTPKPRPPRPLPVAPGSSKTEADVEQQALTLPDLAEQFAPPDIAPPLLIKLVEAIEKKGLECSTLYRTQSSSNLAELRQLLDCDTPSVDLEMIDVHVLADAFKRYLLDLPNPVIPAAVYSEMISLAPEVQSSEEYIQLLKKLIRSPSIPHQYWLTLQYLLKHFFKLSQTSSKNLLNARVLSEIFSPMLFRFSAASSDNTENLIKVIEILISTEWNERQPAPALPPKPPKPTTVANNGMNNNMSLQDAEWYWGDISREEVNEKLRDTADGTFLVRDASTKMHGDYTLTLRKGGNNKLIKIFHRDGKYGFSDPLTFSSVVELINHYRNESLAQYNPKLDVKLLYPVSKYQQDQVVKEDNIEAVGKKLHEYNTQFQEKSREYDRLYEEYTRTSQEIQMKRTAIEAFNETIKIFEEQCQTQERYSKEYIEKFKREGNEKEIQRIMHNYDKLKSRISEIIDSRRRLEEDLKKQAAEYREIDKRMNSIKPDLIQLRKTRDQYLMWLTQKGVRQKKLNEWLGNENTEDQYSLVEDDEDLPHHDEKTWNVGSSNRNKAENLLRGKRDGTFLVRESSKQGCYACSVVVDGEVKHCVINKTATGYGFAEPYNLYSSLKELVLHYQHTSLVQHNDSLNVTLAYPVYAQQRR
PI3Kβ, sequence (P42338 whole entry, species assumed): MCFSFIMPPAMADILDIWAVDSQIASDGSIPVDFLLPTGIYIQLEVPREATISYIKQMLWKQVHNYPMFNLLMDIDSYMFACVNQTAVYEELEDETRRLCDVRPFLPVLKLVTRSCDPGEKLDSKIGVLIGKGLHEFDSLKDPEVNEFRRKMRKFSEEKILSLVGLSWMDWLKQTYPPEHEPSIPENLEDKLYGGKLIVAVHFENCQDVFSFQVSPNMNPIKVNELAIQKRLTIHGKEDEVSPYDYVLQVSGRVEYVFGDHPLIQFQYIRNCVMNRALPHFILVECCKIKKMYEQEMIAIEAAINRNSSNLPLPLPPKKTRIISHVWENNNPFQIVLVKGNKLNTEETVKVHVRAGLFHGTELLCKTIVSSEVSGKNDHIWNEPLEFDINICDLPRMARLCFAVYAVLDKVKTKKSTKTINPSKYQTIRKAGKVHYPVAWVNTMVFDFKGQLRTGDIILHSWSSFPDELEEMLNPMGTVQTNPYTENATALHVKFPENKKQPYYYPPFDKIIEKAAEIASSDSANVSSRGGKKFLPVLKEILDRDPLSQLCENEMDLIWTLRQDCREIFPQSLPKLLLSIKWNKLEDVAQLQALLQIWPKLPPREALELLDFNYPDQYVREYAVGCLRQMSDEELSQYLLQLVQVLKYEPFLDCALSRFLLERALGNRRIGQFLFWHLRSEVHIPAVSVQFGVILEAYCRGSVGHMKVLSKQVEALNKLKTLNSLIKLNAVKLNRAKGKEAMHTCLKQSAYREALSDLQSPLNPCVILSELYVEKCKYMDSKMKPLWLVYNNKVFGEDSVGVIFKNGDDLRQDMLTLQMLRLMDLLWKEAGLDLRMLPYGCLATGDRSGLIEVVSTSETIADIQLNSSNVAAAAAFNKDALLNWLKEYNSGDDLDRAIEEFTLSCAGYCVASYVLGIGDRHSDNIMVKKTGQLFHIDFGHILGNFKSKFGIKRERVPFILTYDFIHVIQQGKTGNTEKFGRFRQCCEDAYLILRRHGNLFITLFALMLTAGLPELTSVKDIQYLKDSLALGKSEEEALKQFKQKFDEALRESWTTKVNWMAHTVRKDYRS
PI3Kβ, sequence (P27986 whole entry partner, species assumed): as the sequence (P27986 whole entry partner, species assumed) above
PI3Kα, sequence (P42336 whole entry, species assumed): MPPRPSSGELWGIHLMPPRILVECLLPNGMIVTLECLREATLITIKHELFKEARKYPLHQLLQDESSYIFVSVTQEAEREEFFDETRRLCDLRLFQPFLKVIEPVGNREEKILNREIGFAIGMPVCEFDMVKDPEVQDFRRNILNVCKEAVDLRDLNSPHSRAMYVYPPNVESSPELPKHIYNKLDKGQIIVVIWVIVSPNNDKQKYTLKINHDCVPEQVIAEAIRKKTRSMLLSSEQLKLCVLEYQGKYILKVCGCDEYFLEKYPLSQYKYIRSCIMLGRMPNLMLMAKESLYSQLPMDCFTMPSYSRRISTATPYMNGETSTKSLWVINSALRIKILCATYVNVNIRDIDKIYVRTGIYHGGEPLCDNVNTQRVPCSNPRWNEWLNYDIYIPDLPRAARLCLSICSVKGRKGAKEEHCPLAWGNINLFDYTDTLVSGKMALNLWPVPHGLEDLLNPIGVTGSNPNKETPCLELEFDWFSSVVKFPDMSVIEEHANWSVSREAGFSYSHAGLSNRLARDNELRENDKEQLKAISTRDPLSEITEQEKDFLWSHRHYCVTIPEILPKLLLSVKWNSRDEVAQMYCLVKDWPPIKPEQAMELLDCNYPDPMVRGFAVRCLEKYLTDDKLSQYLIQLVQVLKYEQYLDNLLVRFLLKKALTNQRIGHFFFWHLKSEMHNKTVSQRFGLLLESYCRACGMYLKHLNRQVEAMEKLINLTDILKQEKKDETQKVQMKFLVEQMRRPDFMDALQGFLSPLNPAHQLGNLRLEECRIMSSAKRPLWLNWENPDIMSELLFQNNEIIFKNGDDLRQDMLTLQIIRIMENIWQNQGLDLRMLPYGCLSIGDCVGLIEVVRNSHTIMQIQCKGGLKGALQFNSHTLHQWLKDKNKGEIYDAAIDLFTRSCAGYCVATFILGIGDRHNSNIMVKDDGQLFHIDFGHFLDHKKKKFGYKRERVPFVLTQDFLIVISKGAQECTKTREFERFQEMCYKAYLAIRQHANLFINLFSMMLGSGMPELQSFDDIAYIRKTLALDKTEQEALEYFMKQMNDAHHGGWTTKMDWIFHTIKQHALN
PI3Kα, sequence (P27986 whole entry partner, species assumed): as the sequence (P27986 whole entry partner, species assumed) above
PI3Kγ, sequence (P48736 whole entry, species assumed): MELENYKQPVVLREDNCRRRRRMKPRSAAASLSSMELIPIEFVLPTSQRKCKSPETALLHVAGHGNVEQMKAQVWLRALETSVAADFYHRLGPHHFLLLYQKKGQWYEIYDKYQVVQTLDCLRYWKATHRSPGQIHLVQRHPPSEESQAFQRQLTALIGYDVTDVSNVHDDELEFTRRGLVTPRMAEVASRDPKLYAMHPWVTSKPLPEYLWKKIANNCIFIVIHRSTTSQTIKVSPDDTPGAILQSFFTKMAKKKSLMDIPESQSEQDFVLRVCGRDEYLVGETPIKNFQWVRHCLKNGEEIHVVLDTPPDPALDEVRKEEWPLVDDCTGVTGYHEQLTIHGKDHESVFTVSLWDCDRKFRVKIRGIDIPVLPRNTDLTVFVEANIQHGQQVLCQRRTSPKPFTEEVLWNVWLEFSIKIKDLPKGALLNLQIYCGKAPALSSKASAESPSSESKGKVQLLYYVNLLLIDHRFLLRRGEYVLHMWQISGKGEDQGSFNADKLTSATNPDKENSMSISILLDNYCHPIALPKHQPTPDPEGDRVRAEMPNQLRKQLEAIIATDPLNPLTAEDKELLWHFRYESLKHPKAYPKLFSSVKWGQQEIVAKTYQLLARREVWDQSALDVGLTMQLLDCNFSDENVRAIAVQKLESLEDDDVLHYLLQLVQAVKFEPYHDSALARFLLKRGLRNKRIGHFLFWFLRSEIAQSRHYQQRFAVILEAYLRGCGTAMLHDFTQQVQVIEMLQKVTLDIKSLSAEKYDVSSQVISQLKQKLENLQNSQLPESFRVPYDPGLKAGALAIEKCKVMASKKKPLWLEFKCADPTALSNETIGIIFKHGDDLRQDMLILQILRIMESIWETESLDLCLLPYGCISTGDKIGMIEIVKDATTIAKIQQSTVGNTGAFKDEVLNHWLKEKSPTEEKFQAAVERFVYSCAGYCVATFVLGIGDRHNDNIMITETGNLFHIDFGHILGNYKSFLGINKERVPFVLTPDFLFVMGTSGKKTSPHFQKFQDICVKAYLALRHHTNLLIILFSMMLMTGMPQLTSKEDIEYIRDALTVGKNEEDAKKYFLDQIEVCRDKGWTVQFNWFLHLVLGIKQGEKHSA

SMILES	IC50 [1, 14] [nM]	IC50 [2, 15] [nM]	IC50 [3, 16] [nM]	IC50 [4, 17] [nM]	IC50 [1, 18] [nM]	further results
CN(C)CCN(CCO)c1nc(N2CCOCC2)nc(-n2c(C(F)F)nc3ccccc32)n1 [ST-5-44]	148 ± 22	46.7 ± 3.3	627 ± 174	869 ± 11		
NOCCOCCOCCOCCN(CCO)c1nc(N2CCOCC2)nc(-n2c(C(F)F)nc3ccccc32)n1 [ST-5-46]	10.9 ± 0.7	8.6 ± 1.2	1080 ± 143	137 ± 21		
O=C(NOCCOCCOCCOCCN(CCO)c1nc(N2CCOCC2)nc(-n2c(C(F)F)nc3ccccc32)n1)c1ccc(F)c(F)c1Nc1ccc(I)cc1F [ST-5-47]	107 ± 21	137 ± 7	3880 ± 725	2570 ± 364		IC50 [5]: 352 ± 2 nM
NOCCOCCOCCOCCNc1nc(N2CCOCC2)nc(-n2c(C(F)F)nc3ccccc32)n1 [ST-5-50]	89.3 ± 9.5	12.6 ± 1	1870 ± 245	502 ± 20		
COCCN(CCO)c1nc(N2CCOCC2)nc(-n2c(C(F)F)nc3ccccc32)n1 [ST-6-01]	5.1 ± 1.1	8.9 ± 0.5	136 ± 6.4	30.7 ± 0.9		
O=C(NOCCOCCOCCOCCNc1nc(N2CCOCC2)nc(-n2c(C(F)F)nc3ccccc32)n1)c1ccc(F)c(F)c1Nc1ccc(F)cc1F [ST-6-02]	130 ± 13	236 ± 29	1540 ± 188	2740 ± 485		IC50 [5]: 124 ± 11 nM
O=C(NOCCOCCOCCOCCC(=O)N1CCN(c2nc(N3CCOCC3)nc(-n3c(C(F)F)nc4ccccc43)n2)CC1)c1ccc(F)c(F)c1Nc1ccc(I)cc1F [ST-168]					69.2 ± 2.2	reversal of lung fibroproliferative disease and pleural thickness (CT) [8]: strong activity for reversal; bioavailability following administration [9]: bioavailable; tolerance / observed toxicities [10]: no observed toxicities; Kp at 4 h ([11]; lymphatic tissue / plasma, single oral dose in ORA-Plus suspension, 4 hours post-administration, read-out: lymphatic/plasma ratio): ~120; partitioning between lymphatic/plasma over time ([11]; single oral dose of 400 mg/kg in ORA-Plus): maintained over a 24 hour time period; lymphatic uptake (tissue concentration levels) ([11]; single oral doses of 100 mg/kg and 400 mg/kg in Maisine, 2, 4, and 24 hour): extraordinarily high lymphatic uptake; down regulation of pERK1/2 and pAKT in cells [6]: down regulate; IC50 [3, 20]: 1480 ± 377 nM; IC50 [4, 21]: 2290 ± 241 nM; in vivo activity for suppression of MEK1/PI3K kinase activities in solid tumors, compared to ST-162 ([7]; 400 mg/kg oral gavage once daily, A375 xenografts): superior in vivo activity; tumor growth [7]: tumor stasis
O=C(NOCCOCCOCCOCCC(=O)N1CCN(c2cnc3ccc(-c4cnc(Cl)c(NS(=O)(=O)c5ccc(F)cc5)c4)cc3n2)CC1)c1ccc(F)c(F)c1Nc1ccc(I)cc1F [ST-182]						reversal of lung fibroproliferative disease and pleural thickness (CT) [8]: strong activity for reversal; transport into the lymphatics after cycloheximide pretreatment [12]: significantly reduced

Second part, led by results:

IC50 [1, 14] [nM]	IC50 [2, 15] [nM]	IC50 [3, 16] [nM]	IC50 [4, 17] [nM]	IC50 [1, 18] [nM]	SMILES	further results
				191 ± 64	O=C(NOCCOCCOCCOCCN1CCN(c2nc(N3CCOCC3)nc(-n3c(C(F)F)nc4ccccc43)n2)CC1)c1ccc(F)c(F)c1Nc1ccc(I)cc1F [ST-162]	IC50 [2, 19]: 942 ± 120 nM; down regulation of pERK1/2 and pAKT in cells [6]: down regulate; tumor growth [7]: tumor stasis
				42.3 ± 4	CN(C)C1CCN(C(=O)c2ccc(NC(=O)Nc3ccc(-c4nc(N5CCOCC5)nc(N5CCN(C(=O)CCOCCOCCOCCONC(=O)c6ccc(F)c(F)c6Nc6ccc(I)cc6F)CC5)n4)cc3)cc2)CC1 [ST-185]	IC50 [13]: 50.4 ± 4.2 nM; IC50 [2, 19]: 55.3 ± 3.9 nM; IC50 [3, 20]: 1620 ± 442 nM; IC50 [4, 21]: 325 ± 78 nM
